Reference: the OPERA property sets (Mansouri et al. 2018)

Compound `C=C(C)C1CC1` has a boiling point of 70 °C. `Cc1ccccc1N` showed a boiling point of 200 °C, a log10 Henry constant (atm·m³/mol) of -5.7 and a log10 vapour pressure (mmHg) of -0.585. For the same compound, the melting point was -16.3 °C and the ready biodegradability was “readily biodegradable”. `C=COc1ccccc1` showed a boiling point of 156 °C. In the case of `C1CCC(CCCC2CCCCC2)CC1`, the boiling point is reported as 292 °C and the melting point is reported as -17 °C. Compound `CCCCc1ccc(C(=O)O)nc1` has a melting point of 97 °C. Compound `O=C(O)/C=C/c1ccccc1` has a boiling point of 300 °C, a log10 vapour pressure (mmHg) of -4.49 and a melting point of 133 °C. In the case of `O[C@@H]1[C@@H](O)[C@@H]2OC[C@@H](O2)[C@H]1O`, the log10 vapour pressure (mmHg) is reported as -7.12 and the melting point is reported as 183 °C. `CN1CCN(CCCN2c3ccccc3Sc3ccccc32)CC1` gave a melting point of 52 °C. Work on `O=C(C(F)(F)F)C(F)(F)F` yielded a boiling point of -27.4 °C, a log10 vapour pressure (mmHg) of 3.35 and a melting point of -125 °C. Compound `COC(=O)CCC(=O)O` has a melting point of 58 °C. With `Cc1ccc(P(c2ccc(C)cc2)c2ccc(C)cc2)cc1` the melting point was 149 °C. Compound `CC(=O)c1cccc(O)c1` has a boiling point of 296 °C and a melting point of 96 °C. With `COc1ccc(CC#N)cc1OC` the melting point was 62.8 °C. For `CC1(C)O[C@@H]2C[C@H]3[C@@H]4C[C@H](F)C5=CC(=O)C=C[C@]5(C)[C@@]4(F)[C@@H](O)C[C@]3(C)[C@]2(C(=O)CO)O1`, the melting point was 266 °C. In the case of `Oc1ccc(Cl)cc1O`, the melting point is reported as 90.5 °C and the ready biodegradability is reported as “not readily biodegradable”. `CCOP(=S)(OCC)Oc1ccc([N+](=O)[O-])cc1` showed a boiling point of 375 °C, a log10 Henry constant (atm·m³/mol) of -6.53 and a log10 Koc (L/kg) of 3.2. It also gave a log10 vapour pressure (mmHg) of -5.18 and a melting point of 6.1 °C. In the case of `OCc1ccc(Cl)cc1Cl`, the melting point is reported as 59.5 °C and the ready biodegradability is reported as “readily biodegradable”. Work on `CC(=O)N=c1sc(S(N)(=O)=O)nn1C` yielded a melting point of 214 °C. For `c1cc(-c2ncco2)cc(-c2ncco2)c1`, the ready biodegradability was “not readily biodegradable”. For `CCCOC(=O)Cn1cc(I)c(=O)c(I)c1`, the melting point was 186 °C. `O=C(O)COc1nn(Cc2ccccc2)c2ccccc12` showed a melting point of 160 °C. With `CCCC(C)C(C)CC` (stereo not given) the boiling point was 141 °C. For `O=[N+]([O-])c1ccc(F)cc1`, the boiling point was 205 °C and the melting point was 21 °C. For `CCCC(C)C(=O)O` (stereo not given), the boiling point was 196 °C. `CN1C(=O)CCC1=O` gave a boiling point of 234 °C and a melting point of 71 °C. `O=C(O)c1cccc(-c2ccccc2)c1O` showed a melting point of 186 °C. In the case of `OCC(O)COc1ccc(Cl)cc1` (stereo not given), the melting point is reported as 78 °C. Compound `O=C1CCCCCCCCC1` has a melting point of 28 °C. With `NC(=O)Nc1ccc(F)cc1` the log10 Koc (L/kg) was 1.52. Compound `O=C(SSC(=O)c1ccccc1)c1ccccc1` has a melting point of 134 °C. `CC(CO)Oc1ccccc1` (stereo not given) gave a boiling point of 244 °C. For `NCCNCCNCCN`, the boiling point was 266 °C, the melting point was 12 °C and the ready biodegradability was “not readily biodegradable”. `CCCCCCCCC(=O)CCCCCCCC` showed a boiling point of 252 °C and a melting point of 53 °C. With `CCCCCCCCCCc1ccc(O)c(/C=N/O)c1` the ready biodegradability was “readily biodegradable”. Compound `NC[C@H](O)C(=O)O` has a melting point of 235 °C. `Clc1ccc(C(Cl)Cl)c(Cl)c1Cl` gave a boiling point of 278 °C and a melting point of 84 °C. Compound `Cc1nccn1C` has a boiling point of 206 °C. `O=C(O)C(O)c1ccc(Br)cc1` (stereo not given) gave a melting point of 118 °C. For `c1ccc2c(c1)OCO2`, the boiling point was 172 °C. With `COP(=S)(OC)Oc1nc(Cl)c(Cl)cc1Cl` the log10 Koc (L/kg) was 3.52, the log10 vapour pressure (mmHg) was -4.38 and the melting point was 43 °C. Compound `CC(C)NCC(O)c1ccc(NS(C)(=O)=O)cc1` (stereo not given) has a melting point of 207 °C. `C=C(C)c1ccc(C)cc1` gave a boiling point of 185 °C and a melting point of -20 °C. For `O=NN1CCCCC1`, the boiling point was 219 °C. `C=C1C(=O)O[C@@H]2C[C@@H](C)[C@@H]3C=CC(=O)[C@@]3(C)[C@@H](O)[C@H]12` showed a melting point of 168 °C. With `CCCCCCOC(=O)c1ccccc1C(=O)OCCCCCC` the log10 Koc (L/kg) was 4.72, the log10 vapour pressure (mmHg) was -4.85 and the melting point was -58 °C. In the case of `COc1cc2c(cc1O)[C@H](Cc1ccc(O)cc1)NCC2`, the melting point is reported as 220 °C. Compound `O=[N+]([O-])c1cccc2cnccc12` has a melting point of 110 °C. Compound `CCC(=O)OC1CCCCC1` has a boiling point of 193 °C. With `C[Si](C)(C)CCCO` the boiling point was 141 °C. In the case of `c1ccc(Cc2ccncc2)cc1`, the boiling point is reported as 288 °C and the melting point is reported as 12.4 °C. For `CC(O)(P(=O)(O)O)P(=O)(O)O`, the ready biodegradability was “readily biodegradable”. `CCCCC#CCCCCC` gave a boiling point of 198 °C and a melting point of -74.1 °C. For `CCCC/C=C\C(C)(C)O`, the boiling point was 177 °C. `CN(C(=O)Cl)c1ccccc1` showed a boiling point of 280 °C and a melting point of 88.5 °C. With `CCCc1cccc(CCC)c1O` the boiling point was 256 °C and the melting point was 27 °C. With `CC(C)(C)N=C=O` the melting point was 85.5 °C. With `CO[Si](CCCN=C(N(C)C)N(C)C)(OC)OC` the ready biodegradability was “not readily biodegradable”. In the case of `BrC(Br)(Br)Br`, the boiling point is reported as 190 °C, the log10 vapour pressure (mmHg) is reported as -0.569 and the melting point is reported as 90.1 °C. With `O=C(O)COc1cc(Cl)c(Cl)cc1Cl` the log10 Koc (L/kg) was 1.99 and the melting point was 153 °C. `CCOC(=O)CCCOc1ccc(Cl)cc1C` gave a log10 vapour pressure (mmHg) of -5.84 and a melting point of -1 °C. In the case of `Cc1ccc(Cl)cc1[N+](=O)[O-]`, the boiling point is reported as 242 °C and the melting point is reported as 38 °C. `CN1Cc2c(ccc3c2OCO3)[C@@H]2[C@H]1c1cc3c(cc1C[C@@H]2O)OCO3` gave a melting point of 136 °C. In the case of `O=C(O)c1ccccn1`, the melting point is reported as 136 °C and the ready biodegradability is reported as “readily biodegradable”. In the case of `NCCC(=O)O`, the ready biodegradability is reported as “readily biodegradable”. With `C=COC(=O)CCC` the melting point was 117 °C. `CC(C)CC(C)Cl` (stereo not given) showed a boiling point of 113 °C. `N#CCCNc1ccccc1` showed a melting point of 52.5 °C.
